Source: patent publication US11192903B2, “Zirconium-89 oxine complex as a cell labeling agent for positron emission tomography” (The United States of America, as represented by the …, priority 2014, dated 2021)
Where two headings read alike, the source gives them in different places.

Key:
[1] = system: DCs
Method: (§1) After ^89Zr-oxine complex labeling, DCs were stimulated with LPS (5 ng/ml) overnight. CD8 T cells labeled with ^89Zr-oxine complex were stimulated with plate coated anti-CD3 antibody (10 μg/ml) and anti-CD28 antibody (5 μg/ml) for 3 days, then transferred to an antibody-free culture supplemented with human IL-15 (3 nM).
(§2) CTLs, both labeled and unlabeled, were activated by plate coated anti-CD3 antibody (10 μg/ml) and anti-CD28 antibody (5 μg/ml) for 1.5 day and expression of CD3, CD8, CD44, CD25, CD69, INF-γ and IL-2 which was evaluated by flow cytometry. Bone marrow-derived DCs on day 6 of culture with or without ^89Zr-oxine complex labeling were stimulated with LPS (1 ng/ml) overnight and surface expression of CD11c, CD80, CD86, CD40, MHC class I and MHC class II was examined. In another experiment, ^89Zr-labeled DCs were stimulated with LPS in the presence of OVA overnight, transferred to Rag1KO mice expressing Ly5.2 (2 million cells) pre-injected with CMFDA labeled OT-1 CD8 T cells expressing Ly5.1. Peripheral blood and splenocytes were collected 3.5 days later and dilution of CMFDA in OT-1 T cells was analyzed using flow cytometry gated on Ly5.1+ CD8 T cells.

[2] = system: BM cells
Method: The surface expressions of CD117, sca-1 and lineage markers (CD3, NK1.1, Ly6G, CD2, CD5 and B220) on BM cells were examined before and after ^89Zr-oxine labeling (3.15 kBq/2×10^6) and analyzed by flow cytometry using a FACS Calibur flow cytometer (Becton Dickinson, San Jose, Calif.) and analyzed using FlowJo software (Tree Star, Inc., Ashland, Oreg.). BM cell differentiation capability was examined by culturing the ^89Zr-labeled and non-labeled cells with GM-CSF (20 ng/ml) and IL-15 (25 nM) for differentiation to DCs and NK/NK-T cells (n=3). On day 10, the cells were harvested, stained with anti-CD11c, CD86, and NK1.1 antibodies, and analyzed on flow cytometry. For the GM-CSF culture, cell associated-^89Zr activity and cell number were also examined.

[3] = system: BM cells; remark: listed apart in the source
Method: BM cells were incubated with 11.0-55.5 kBq/10^6 cells of ^89Zr-oxine complex in PBS at 25:1 volume ratios for 20 minutes, washed twice in RPMI media and transferred to a new tube. […] To determine cell viability and retention of ^89Zr after the labeling, BM cells were labeled with 2 different radioactivity doses, 28.12 kBq/10^6 and 8.14 kBq/10^6 cells, and cultured with SCF, FLT3L and TPO (100 ng/ml each). The number of live cells was counted using 0.4% trypan blue dye (Life Technologies) at 0 h, 2 d, 4 d, and 7 d (n=3). At each time point, the cell suspension was spun to separate the supernatant and the cell pellet, and the radioactivity of both fractions was measured by a γ-counter (WIZARD^2 automatic gamma-counter, Perkin Elmer, Waltham, Mass.).

[4] = system: CTLs; conditions: TCR stimulation then withdrawal, vs non-labeled
Method: as §1

[5] = system: CTLs; conditions: TCR stimulation
Method: as §2
CTLs were TCR stimulated after the ^89Zr-oxine complex labeling.

[6] = target: CXCR4 (Mus musculus, UniProt P70658); conditions: at 2 h; plerixafor 5 mg/kg i.v. 15 min before cell transfer
Method: A CXCR4 inhibitor, plerixafor (Adooq Bioscience, Irvine, Calif.), was used to interrogate the role of CXCR4 in BM cell migration (n=4). Mice received an i.v. injection of plerixafor (5 mg/kg) 15 min before and 1 day after the ^89Zr-oxine labeled BM cell transfer (331 kBq/2×10^7 cells). Another group of mice received concurrent i.v. injections of G-CSF (2.5 μg, n=4). Deferoxamine was injected intramuscularly 15 min before and 1, 2, 3 and 4 hr after the cell injection. Serial microPET/CT images were acquired.

Chain of CXCR4 (P70658 whole entry): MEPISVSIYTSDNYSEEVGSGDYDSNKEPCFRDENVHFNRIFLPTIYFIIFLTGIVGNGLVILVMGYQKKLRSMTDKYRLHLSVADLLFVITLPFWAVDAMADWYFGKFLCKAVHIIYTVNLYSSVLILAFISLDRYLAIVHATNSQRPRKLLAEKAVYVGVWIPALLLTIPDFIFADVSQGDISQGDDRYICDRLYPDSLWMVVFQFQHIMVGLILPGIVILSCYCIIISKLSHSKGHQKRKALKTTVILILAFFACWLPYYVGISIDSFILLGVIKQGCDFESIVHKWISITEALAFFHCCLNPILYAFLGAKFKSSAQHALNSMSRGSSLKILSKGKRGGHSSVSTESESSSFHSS

SMILES: c1cnc2c([O][89Zr]([O]c3cccc4cccnc34)([O]c3cccc4cccnc34)[O]c3cccc4cccnc34)cccc2c1 [^89Zr-oxine complex]
- antigen presentation to OT-1 T cells in vivo ([1]; labeled DCs stimulated with LPS and OVA, injected into mice, flow cytometry 4 days after transfer): capable of presenting the antigen and inducing T cell activation and proliferation as well as non-labeled DCs
- expression of B7 molecules, CD80 and CD86, on DCs ([1]; prior to LPS activation): slightly increased expression
- capacity to proliferate and differentiate ([2]; 10 day culture with GM-CSF or IL-15): retained the capacity to proliferate and differentiate normally into mature cells
- expression of CD117, sca-1 and lineage markers ([2]; BM cells, 3.15 kBq/2×10^6): at similar levels to non-labeled controls
- live cell number ([3]; BM cells labeled at 8.14 kBq/10^6 cells): slight proliferation after day 4
- live cell number ([3]; BM cells labeled at 28.12 kBq/10^6 cells): slightly decreased in number
- suppression of the proliferation ([3]; BM cells, lower labeling dose (8.14 kBq/10^6 cells), vs non-labeled control): approximately 50%
- proliferation and contraction of labeled CTLs [4]: similarly to the non-labeled controls
- production of IFNγ and IL-2 [5]: did not negatively affect
- upregulation of CD69, CD25 and CD44 markers ([5]; labeled vs non labeled CTLs): at the similar levels

SMILES: c1cc(CN2CCCNCCNCCCNCC2)ccc1CN1CCCNCCNCCCNCC1 [plerixafor]
- migration of labeled cells to the BM [6]: significantly inhibited
